HELM strings list units from the 5' end as sugar, base in round brackets, then linkage (d deoxyribose, r ribose, m 2'-O-methyl, p phosphodiester). Strings are as the collection lists them; they lack the last nucleoside at the 3' end of the tested compound. [moe] = 2'-O-(2-methoxyethyl) (MOE); [sp] = phosphorothioate linkage; [m5C] = 5-methylcytosine

This series has as its target UBE3A-ATS. Briefly: mouse, dose not given. To be noted: ASO.
On to “RNA1{[moe](G)[sp].[moe]([m5C])p.[moe](A)p.[moe](T)p.[moe](G)p.d(A)[sp].d(T)[sp].d(T)[sp].d([m5C])[sp].d(T)[sp].d(A)[sp].d(A)[sp].d([m5C])[sp].d([m5C])[sp].d(A)[sp].[moe](T)p.[moe](A)p.[moe](G)[sp].[moe](A)}$$$$ (last 3' nucleoside missing)”, for which the 3 h FOB score is 1 score 0-7. Turning to “RNA1{[moe](G)[sp].[moe](A)p.[moe](T)p.[moe]([m5C])p.d(A)[sp].d([m5C])[sp].d(A)[sp].d(T)[sp].d(T)[sp].d(A)[sp].d([m5C])[sp].d([m5C])[sp].d([m5C])[sp].d(A)[sp].[moe](T)p.[moe]([m5C])p.[moe]([m5C])p.[moe](G)[sp].[moe](T)}$$$$ (last 3' nucleoside missing)”, the 3 h FOB score came out at 0 score 0-7. With “RNA1{[moe](G)[sp].[moe](T)p.[moe]([m5C])p.[moe](T)p.[moe]([m5C])p.d([m5C])[sp].d([m5C])[sp].d(T)[sp].d([m5C])[sp].d(T)[sp].d(T)[sp].d(A)[sp].d(G)[sp].d(T)[sp].d(G)[sp].[moe](A)p.[moe](T)p.[moe](T)[sp].[moe](G)}$$$$ (last 3' nucleoside missing)”, the 3 h FOB score is 4 score 0-7. On to “RNA1{[moe](G)[sp].[moe](A)p.[moe](G)p.[moe]([m5C])p.[moe](T)p.[moe](A)[sp].d(T)[sp].d([m5C])[sp].d(T)[sp].d(G)[sp].d(T)[sp].d(A)[sp].d([m5C])[sp].d(A)[sp].[moe](A)p.[moe](A)[sp].[moe](A)}$$$$ (last 3' nucleoside missing)”, for which the 3 h FOB score was found to be 4.7 score 0-7. With “RNA1{[moe](T)[sp].[moe](T)p.[moe]([m5C])p.[moe](A)[sp].d([m5C])[sp].d([m5C])[sp].d(A)[sp].d(T)[sp].d(T)[sp].d(T)[sp].d(T)[sp].d(G)[sp].[moe](A)p.[moe]([m5C])p.[moe]([m5C])p.[moe](T)[sp].[moe](T)}$$$$ (last 3' nucleoside missing)”, the 3 h FOB score was 0 score 0-7.

As to “RNA1{[moe]([m5C])[sp].[moe](T)p.[moe]([m5C])p.[moe](A)p.[moe](G)[sp].d(T)[sp].d(T)[sp].d(A)[sp].d(G)[sp].d(G)[sp].d(T)[sp].d(T)[sp].d(A)[sp].[moe](G)p.[moe](T)p.[moe](G)[sp].[moe]([m5C])}$$$$ (last 3' nucleoside missing)”, the 3 h FOB score is 1.3 score 0-7.

In the case of “RNA1{[moe](A)[sp].[moe](G)p.[moe](G)p.[moe](T)p.[moe](G)p.d(T)[sp].d([m5C])[sp].d(T)[sp].d(T)[sp].d(A)[sp].d(T)[sp].d(A)[sp].d(T)[sp].d([m5C])[sp].d(T)[sp].[moe](A)p.[moe](T)p.[moe](G)[sp].[moe](A)}$$$$ (last 3' nucleoside missing)”, the 3 h FOB score amounted to 0 score 0-7. In the case of “RNA1{[moe](G)[sp].[moe]([m5C])p.[moe]([m5C])p.[moe](A)p.[moe](G)p.d(G)[sp].d(T)[sp].d(G)[sp].d(T)[sp].d([m5C])[sp].d(T)[sp].d(T)[sp].d(A)[sp].d(T)[sp].d(A)[sp].[moe](T)p.[moe]([m5C])p.[moe](T)[sp].[moe](A)}$$$$ (last 3' nucleoside missing)”, the 3 h FOB score was 0 score 0-7. Substance “RNA1{[moe](T)[sp].[moe](G)p.[moe](A)p.[moe](G)p.[moe]([m5C])p.[moe](T)[sp].d(A)[sp].d(T)[sp].d([m5C])[sp].d(T)[sp].d(G)[sp].d(T)[sp].d(A)[sp].d([m5C])[sp].[moe](A)p.[moe](A)[sp].[moe](A)}$$$$ (last 3' nucleoside missing)” came in with a 3 h FOB score of 5 score 0-7. Take “RNA1{[moe]([m5C])[sp].[moe](T)p.[moe](T)p.[moe](A)p.[moe](A)p.d(A)[sp].d(T)[sp].d(A)[sp].d(G)[sp].d(T)[sp].d(A)[sp].d(G)[sp].d(G)[sp].d(A)[sp].d(A)[sp].[moe](A)p.[moe](G)p.[moe]([m5C])[sp].[moe]([m5C])}$$$$ (last 3' nucleoside missing)”: the 3 h FOB score was 4.8 score 0-7.

On to “RNA1{[moe](A)[sp].[moe](G)p.[moe]([m5C])p.[moe](T)p.[moe](A)p.d(T)[sp].d([m5C])[sp].d(T)[sp].d(G)[sp].d(T)[sp].d(A)[sp].d([m5C])[sp].d(A)[sp].d(A)[sp].d(A)[sp].[moe](A)p.[moe](T)p.[moe](G)[sp].[moe](G)}$$$$ (last 3' nucleoside missing)”, for which the 3 h FOB score turned out to be 4 score 0-7. The substance “RNA1{[moe](T)[sp].[moe](A)p.[moe](G)p.[moe](G)p.[moe]([m5C])p.d(T)[sp].d(G)[sp].d(G)[sp].d(G)[sp].d([m5C])[sp].d([m5C])[sp].d(T)[sp].d([m5C])[sp].d(A)[sp].d(G)[sp].[moe]([m5C])p.[moe](G)p.[moe](T)[sp].[moe](A)}$$$$ (last 3' nucleoside missing)” displayed a 3 h FOB score of 3.5 score 0-7.

Turning to “RNA1{[moe](G)[sp].[moe](A)p.[moe](T)p.[moe](T)p.[moe](T)p.d(T)[sp].d(A)[sp].d(T)[sp].d(T)[sp].d(G)[sp].d(G)[sp].d(T)[sp].d([m5C])[sp].d(A)[sp].d(T)[sp].[moe]([m5C])p.[moe](T)p.[moe]([m5C])[sp].[moe](G)}$$$$ (last 3' nucleoside missing)”, the 3 h FOB score was determined as 6.8 score 0-7. As to “RNA1{[moe](T)[sp].[moe](T)p.[moe]([m5C])p.[moe](T)p.[moe]([m5C])p.d(A)[sp].d([m5C])[sp].d([m5C])[sp].d(T)[sp].d(A)[sp].d(G)[sp].d(G)[sp].d([m5C])[sp].d(T)[sp].d(G)[sp].[moe](G)p.[moe](G)p.[moe]([m5C])[sp].[moe]([m5C])}$$$$ (last 3' nucleoside missing)”, the 3 h FOB score is 2.8 score 0-7. “RNA1{[moe](A)[sp].[moe]([m5C])p.[moe](T)p.[moe](A)p.[moe](T)p.d([m5C])[sp].d([m5C])[sp].d(T)[sp].d(G)[sp].d([m5C])[sp].d(A)[sp].d(T)[sp].d([m5C])[sp].d([m5C])[sp].d(G)[sp].[moe](A)p.[moe](G)p.[moe](G)[sp].[moe]([m5C])}$$$$ (last 3' nucleoside missing)” displayed a 3 h FOB score of 1 score 0-7.

“RNA1{[moe](G)[sp].[moe](G)p.[moe](T)p.[moe](A)p.[moe](A)p.d(G)[sp].d(G)[sp].d([m5C])[sp].d(A)[sp].d(G)[sp].d([m5C])[sp].d(T)[sp].d([m5C])[sp].d([m5C])[sp].d(T)[sp].[moe](G)p.[moe](A)p.[moe]([m5C])[sp].[moe](A)}$$$$ (last 3' nucleoside missing)”: the 3 h FOB score came out at 1.3 score 0-7.

Turning to “RNA1{[moe](A)[sp].[moe](T)p.[moe](G)p.[moe](T)p.[moe](A)p.d(T)[sp].d([m5C])[sp].d(A)[sp].d(G)[sp].d(G)[sp].d([m5C])[sp].d(A)[sp].d(A)[sp].d([m5C])[sp].d(A)[sp].[moe](G)p.[moe](A)p.[moe](A)[sp].[moe](T)}$$$$ (last 3' nucleoside missing)”, the 3 h FOB score is 5 score 0-7. As for “RNA1{[moe](A)[sp].[moe](G)p.[moe](T)p.[moe]([m5C])p.[moe](T)p.d(T)[sp].d([m5C])[sp].d(A)[sp].d(T)[sp].d(T)[sp].d(A)[sp].d(T)[sp].d(T)[sp].d([m5C])[sp].d(T)[sp].[moe]([m5C])p.[moe](T)p.[moe](A)[sp].[moe](G)}$$$$ (last 3' nucleoside missing)”, the 3 h FOB score turned out to be 1 score 0-7.

Regarding “RNA1{[moe](T)[sp].[moe](A)p.[moe](A)p.[moe](A)p.[moe](A)p.d([m5C])[sp].d(G)[sp].d([m5C])[sp].d(A)[sp].d(A)[sp].d(T)[sp].d(G)[sp].d(T)[sp].d(A)[sp].d(T)[sp].[moe]([m5C])p.[moe](A)p.[moe](G)[sp].[moe](G)}$$$$ (last 3' nucleoside missing)”, the 3 h FOB score was 1 score 0-7. “RNA1{[moe](A)[sp].[moe](T)p.[moe](A)p.[moe](G)p.[moe]([m5C])p.d([m5C])[sp].d([m5C])[sp].d(T)[sp].d(T)[sp].d(T)[sp].d([m5C])[sp].d(A)[sp].d(G)[sp].d([m5C])[sp].d(A)[sp].[moe]([m5C])p.[moe](A)p.[moe]([m5C])[sp].[moe](T)}$$$$ (last 3' nucleoside missing)”: the 3 h FOB score was found to be 3.5 score 0-7. As for “RNA1{[moe](A)[sp].[moe](G)p.[moe](A)p.[moe](G)p.[moe](A)p.d([m5C])[sp].d([m5C])[sp].d(T)[sp].d([m5C])[sp].d(A)[sp].d(A)[sp].d(G)[sp].d(A)[sp].d([m5C])[sp].d([m5C])[sp].[moe](T)p.[moe](A)p.[moe](T)[sp].[moe](A)}$$$$ (last 3' nucleoside missing)”, the 3 h FOB score came out at 3.8 score 0-7. For the substance “RNA1{[moe](G)[sp].[moe](G)p.[moe](G)p.[moe](A)p.[moe](T)p.d(A)[sp].d(T)[sp].d(A)[sp].d(T)[sp].d([m5C])[sp].d(A)[sp].d([m5C])[sp].d(T)[sp].d(T)[sp].d(G)[sp].[moe](G)p.[moe](A)p.[moe](G)[sp].[moe]([m5C])}$$$$ (last 3' nucleoside missing)”, the 3 h FOB score worked out at 4 score 0-7.

In turn, “RNA1{[moe](T)[sp].[moe](A)p.[moe](A)p.[moe]([m5C])p.[moe](T)p.d(G)[sp].d([m5C])[sp].d(T)[sp].d(T)[sp].d([m5C])[sp].d(A)[sp].d([m5C])[sp].d([m5C])[sp].d(A)[sp].d(T)[sp].[moe](T)p.[moe](T)p.[moe](T)[sp].[moe](G)}$$$$ (last 3' nucleoside missing)” had a 3 h FOB score of 0 score 0-7. The substance “RNA1{[moe](A)[sp].[moe]([m5C])p.[moe](T)p.[moe](T)p.[moe]([m5C])p.d(A)[sp].d(T)[sp].d([m5C])[sp].d(A)[sp].d(A)[sp].d(T)[sp].d(A)[sp].d(T)[sp].d(T)[sp].d(T)[sp].[moe]([m5C])p.[moe]([m5C])p.[moe]([m5C])[sp].[moe]([m5C])}$$$$ (last 3' nucleoside missing)” showed a 3 h FOB score of 0 score 0-7.

With “RNA1{[moe](G)[sp].[moe](A)p.[moe](T)p.[moe]([m5C])p.[moe](A)p.d(T)[sp].d(G)[sp].d(T)[sp].d(G)[sp].d([m5C])[sp].d(A)[sp].d(T)[sp].d(A)[sp].d([m5C])[sp].d([m5C])[sp].[moe]([m5C])p.[moe](A)p.[moe](G)[sp].[moe](G)}$$$$ (last 3' nucleoside missing)”, the 3 h FOB score came out at 5.7 score 0-7.

“RNA1{[moe]([m5C])[sp].[moe](G)p.[moe](T)p.[moe](G)p.[moe](A)[sp].d(G)[sp].d([m5C])[sp].d(T)[sp].d(A)[sp].d(T)[sp].d([m5C])[sp].d(T)[sp].d(G)[sp].[moe](T)p.[moe](A)p.[moe]([m5C])[sp].[moe](A)}$$$$ (last 3' nucleoside missing)” registered a 3 h FOB score of 1.3 score 0-7.
